Entries after “also recorded” stand apart in the source; their conditions may differ.
Assays:
[1] = system: peripheral afferent nerve endings; conditions: subcutaneous injection of 500 μg into the rat paw; cited from earlier work
PAR-1 = target: T1, PAR-1 (Homo sapiens, UniProt P25116); conditions: Blackhart et al. 1996; cited from earlier work
T1 sequence (P25116 22-425): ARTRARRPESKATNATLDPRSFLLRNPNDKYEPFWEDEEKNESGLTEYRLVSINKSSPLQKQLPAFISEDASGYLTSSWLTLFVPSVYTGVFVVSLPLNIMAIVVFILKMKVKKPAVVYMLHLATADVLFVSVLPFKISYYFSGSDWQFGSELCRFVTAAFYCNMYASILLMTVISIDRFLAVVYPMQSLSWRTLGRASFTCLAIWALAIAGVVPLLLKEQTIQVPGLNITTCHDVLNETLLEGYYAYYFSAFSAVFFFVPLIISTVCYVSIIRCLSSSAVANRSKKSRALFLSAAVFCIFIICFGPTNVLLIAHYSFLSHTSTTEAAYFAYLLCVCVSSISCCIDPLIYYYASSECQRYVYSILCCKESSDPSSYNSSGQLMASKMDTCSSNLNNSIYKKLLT

[2] = system: cultured adult rat thoracic DRG neurons; assay: CGRP release assay in cultured DRG neurons; assay type: cell-based
Protocol: Cell Culture. Primary cultures of rat DRG neurons were prepared from male adult Sprague Dawley rats (200-250 gm). Following enzymatic treatment and dissociation, neurons were spun through a percoll cushion (Hofbauer et al. 1998) and were plated at a density of 10,000-20,000 neurons/well of a 48 well tissue culture plate. Cultures were maintained in DME+10% FCS supplemented with penicillin/streptomycin, 150 μM uridine and 50 μM 5-fluoro-2-deoxyuridine (Nguyen et al. 1999). NGF (murine, recombinant, 2.5S; Promega, Madison, Wis.) was used at 50 ng/ml. Neurons were treated for five days before release experiments or Calcium-imaging studies were performed.
CGRP release assay. Immunoreactive calcitonin gene-related peptide (IR-CGRP) release from DRG cultures was performed as described by Hingtgen et al. (1995). Briefly, neuron cultures were washed with Release Buffer (RB) (25 mM Hepes, pH 7.4, 135 mM NaCl, 3.5 mM KCl, 2.5 mM CaCl2, 1 mM MgCl2, 3.3 mM Glucose, 0.1% BSA, 1 μM phosphoamidon), and were incubated for 10 min at 37° C. in RB plus 0.1% ethanol (Capsaicin vehicle) to measure basal CGRP release. Fresh RB containing the appropriate concentration of activating peptide (AcPep) or control peptide (CoPep) was added for an additional 10 minutes. Peptide treatment was followed by a 10 minute incubation with an appropriate dose of Capsaicin or KCl. IR-CGRP released by neurons was measured by ELISA. Activating peptide and control peptide were prepared by standard solid phase synthesis procedures by the UTMB Core Protein Facility.
CGRP Quantification. CGRP was quantified in a standard sandwich ELISA. In brief, 96-well “U” bottom microtiter ELISA plates (Dynex, Chantilly, Va.) were coated with affinity purified polyclonal rabbit antibody to rat CGRP (Peninsula Labs, Belmont, Calif.) at 3 μg/ml in 0.125M borate buffered saline (pH 8.1) (100 μl/well). The plates were incubated overnight at 37° C. The next day, the plates were washed three times with saline containing 0.05% Tween-20. Purified rat CGRP (Peninsula Labs) was used at a previously standardized concentration range of 25-1 ng/ml in a four-fold dilution to generate a standard curve. An equal volume of the sample was added in duplicate to a seventy-five μl/well of Tween-PBS (pH 7.1) and the plates were incubated for two hours on a shaker at room temperature. The plates were washed 3 times with Tween-PBS and 100 μl/well (0.2 mg/ml; 1:500 dilution) of in-house biotinylated, rabbit anti rat CGRP IgG (Peninsula Labs) was applied and incubated for two hours at room temperature. After three washes 150 μl of 1:1000 diluted streptavidine-horseradish peroxidase conjugate (Zymed, San Fransisco, Calif.) was added to each well and the plates were incubated for 90 min at room temperature. One-hundred-fifty μl/well of the substrate ortho-phenylene diamine dihydrochloride (Sigma Chemicals, St. Louis, Mo.) 0.4 mg/ml in citrate buffer (pH 4.9) was added after plates were washed three more times. Forty μl/100 ml of 30% H2O2 was added fresh to the citrate buffer just before adding to the wells to activate the coloring reaction. The reaction was stopped with 5N H2SO4 (50 μl/well) and the plates were read at 490 nm in an automated ELISA reader (Bio-Tek Instruments, Inc., Winooski, VE). The OD values were plotted against the CGRP standard curve and CGRP immunoreactivity was quantified using the appropriate formula and expressed as nanogram/ml.
Statistics. Release data are presented as the mean± standard error of the mean (SEM) of wells from three separate experiments. To compare the effects of activating peptide and control peptide on subsequent evoked release, an overall test based on the analysis of variance was performed (ANOVA). […] Intraductal injection studies were analyzed using a repeated measure ANOVA and individual means were compared using a Newman-Keuls multiple comparison test. Significance levels were set at p<0.05. […]

Q: Which results are given for “SLIGRL (PEPTIDE (1)..(6) PAR-2 activating peptide; listed as Rattus sp.) [AcPep]”?
A: release of CGRP and Substance P from peripheral afferent nerve endings [1]: results in the release of CGRP and Substance P; activation of PAR-1 (PAR-1): does not activate PAR-1; CGRP release induced by Capsaicin (50 nM) ([2]; 10 min pretreatment with peptide 10 μM, then Capsaicin 50 nM for 10 min in presence of peptide, mean of wells, three experiments): 7.3 ng/mL; CGRP release induced by KCl (70 mM) ([2]; 10 min pretreatment with peptide 10 μM, then KCl 70 mM for 10 min in presence of peptide, mean of wells, three experiments): 2.7 ng/mL; CGRP release by peptide alone (basal release) ([2]; peptide 10 μM alone, 10 minute incubation): did not significantly increase CGRP release; also recorded: does not induce CGRP release; also recorded: no effect on basal CGRP release; KCl evoked IR-CGRP release, in words, versus CoPep ([2]; pre-treatment 10 μM for 10 minutes, KCl 70 mM): significantly higher increase; also recorded: significantly enhances; Capsaicin-evoked CGRP release, in words, versus CoPep ([2]; pretreatment 10 μM for 10 minutes, Capsaicin 50 nM): significant increase; also recorded: significantly enhances
